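Test compounds were applied to cells in 96-well plates for 48 hours at 5 doses. At the GI50, growth is halved.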 Activity calls are given as the source filed them. No stated cut-off is given here; in the data, active = GI50 up to about 1.1 µM and inactive = higher.
Key:
Experiment in all cases: NCI anticancer screen, dose series, 48 h
NCI-H23 = tested on: NCI-H23
SW-620 = tested on: SW-620
SK-MEL-2 = tested on: SK-MEL-2
RXF 393 = tested on: RXF 393
OVCAR-4 = tested on: OVCAR-4
MOLT-4 = tested on: MOLT-4
A549 = tested on: A549
SNB-19 = tested on: SNB-19
K562 = tested on: K562
SF-539 = tested on: SF-539
ACHN = tested on: ACHN
UACC-62 = tested on: UACC-62
LOX IMVI = tested on: LOX IMVI
CAKI-1 = tested on: CAKI-1
COLO 205 = tested on: COLO 205
Hs-578T = tested on: Hs-578T
SN12C = tested on: SN12C
SK-OV-3 = tested on: SK-OV-3
HOP-62 = tested on: HOP-62
BT-549 = tested on: BT-549
786-0 = tested on: 786-0
NCI-H522 = tested on: NCI-H522
OVCAR-3 = tested on: OVCAR-3
HCC 2998 = tested on: HCC 2998
MDA-MB-231 = tested on: MDA-MB-231
HCT-15 = tested on: HCT-15
DU-145 = tested on: DU-145
HOP-92 = tested on: HOP-92
T47D = tested on: T47D
HL-60 = tested on: HL-60
KM12 = tested on: KM12
SR = tested on: SR
SF-268 = tested on: SF-268
A498 = tested on: A498
MDA-N = tested on: MDA-N
HT-29 = tested on: HT-29
SK-MEL-5 = tested on: SK-MEL-5
OVCAR-5 = tested on: OVCAR-5
IGROV-1 = tested on: IGROV-1
SF-295 = tested on: SF-295
SNB-75 = tested on: SNB-75
NCI-H226 = tested on: NCI-H226
NCI/ADR-RES = tested on: NCI/ADR-RES
UO-31 = tested on: UO-31
OVCAR-8 = tested on: OVCAR-8
HCT-116 = tested on: HCT-116
MDA-MB-435 = tested on: MDA-MB-435
EKVX = tested on: EKVX
NCI-H460 = tested on: NCI-H460
CCRF-CEM = tested on: CCRF-CEM
Malme-3M = tested on: Malme-3M
SK-MEL-28 = tested on: SK-MEL-28
UACC-257 = tested on: UACC-257
MCF7 = tested on: MCF7
TK-10 = tested on: TK-10
M14 = tested on: M14
PC-3 = tested on: PC-3
U-251 = tested on: U-251
RPMI-8226 = tested on: RPMI-8226

COc1ccc(C(=O)c2[nH]c(Nc3ccc(Cl)cc3)c(C(=S)Nc3ccccc3)c2N)cc1
GI50 (NCI-H23): > 100 µM (inactive)
GI50 (SW-620): > 100 µM (inactive)
GI50 (SK-MEL-2): > 100 µM (inactive)
GI50 (RXF 393): > 100 µM (inactive)
GI50 (OVCAR-4): 23.8 µM (inactive)
GI50 (MOLT-4): > 100 µM (inactive)
GI50 (A549): > 100 µM (inactive)
GI50 (SNB-19): > 100 µM (inactive)
GI50 (K562): > 100 µM (inactive)
GI50 (SF-539): > 100 µM (inactive)
GI50 (ACHN): > 100 µM (inactive)
GI50 (UACC-62): > 100 µM (inactive)
GI50 (LOX IMVI): > 100 µM (inactive)
GI50 (CAKI-1): > 100 µM (inactive)
GI50 (COLO 205): > 100 µM (inactive)
GI50 (Hs-578T): > 100 µM (inactive)
GI50 (SN12C): > 100 µM (inactive)
GI50 (SK-OV-3): > 100 µM (inactive)
GI50 (HOP-62): > 100 µM (inactive)
GI50 (BT-549): > 100 µM (inactive)
GI50 (786-0): > 100 µM (inactive)
GI50 (NCI-H522): > 100 µM (inactive)
GI50 (OVCAR-3): > 100 µM (inactive)
GI50 (HCC 2998): > 100 µM (inactive)
GI50 (MDA-MB-231): > 100 µM (inactive)
GI50 (HCT-15): > 100 µM
GI50 (DU-145): > 100 µM (inactive)
GI50 (HOP-92): > 100 µM (inactive)
GI50 (T47D): > 100 µM (inactive)
GI50 (HL-60): > 100 µM (inactive)
GI50 (KM12): > 100 µM (inactive)
GI50 (SR): > 100 µM (inactive)
GI50 (SF-268): > 100 µM (inactive)
GI50 (A498): > 100 µM (inactive)
GI50 (MDA-N): > 100 µM (inactive)
GI50 (HT-29): 24.8 µM (inactive)
GI50 (SK-MEL-5): > 100 µM (inactive)
GI50 (OVCAR-5): > 100 µM (inactive)
GI50 (IGROV-1): > 100 µM (inactive)
GI50 (SF-295): > 100 µM (inactive)
GI50 (SNB-75): 44 µM (inactive)
GI50 (NCI-H226): 47 µM (inactive)
GI50 (NCI/ADR-RES): > 100 µM (inactive)
GI50 (UO-31): > 100 µM (inactive)
GI50 (OVCAR-8): > 100 µM (inactive)
GI50 (HCT-116): 60.7 µM (inactive)
GI50 (MDA-MB-435): > 100 µM (inactive)
GI50 (EKVX): > 100 µM (inactive)
GI50 (NCI-H460): > 100 µM (inactive)
GI50 (CCRF-CEM): > 100 µM (inactive)
GI50 (Malme-3M): > 100 µM (inactive)
GI50 (SK-MEL-28): 22.8 µM (inactive)
GI50 (UACC-257): > 100 µM (inactive)
GI50 (MCF7): 70.5 µM (inactive)
GI50 (TK-10): > 100 µM (inactive)

COC(=O)c1ccc(S)c(S(=O)(=O)Nc2nc(N)n[nH]2)c1
GI50 (NCI-H23): > 100 µM (inactive)
GI50 (SW-620): > 100 µM (inactive)
GI50 (SK-MEL-2): > 100 µM (inactive)
GI50 (OVCAR-4): > 100 µM (inactive)
GI50 (MOLT-4): > 100 µM (inactive)
GI50 (A549): > 100 µM (inactive)
GI50 (SNB-19): > 100 µM (inactive)
GI50 (K562): > 100 µM (inactive)
GI50 (SF-539): > 100 µM (inactive)
GI50 (ACHN): > 100 µM (inactive)
GI50 (UACC-62): > 100 µM (inactive)
GI50 (LOX IMVI): > 100 µM (inactive)
GI50 (M14): > 100 µM (inactive)
GI50 (CAKI-1): > 100 µM (inactive)
GI50 (COLO 205): > 100 µM (inactive)
GI50 (Hs-578T): > 100 µM (inactive)
GI50 (SN12C): > 100 µM (inactive)
GI50 (PC-3): > 100 µM (inactive)
GI50 (BT-549): > 100 µM (inactive)
GI50 (786-0): > 100 µM (inactive)
GI50 (NCI-H522): > 100 µM (inactive)
GI50 (OVCAR-3): > 100 µM (inactive)
GI50 (MDA-MB-231): > 100 µM (inactive)
GI50 (HCT-15): > 100 µM
GI50 (DU-145): > 100 µM (inactive)
GI50 (HOP-92): > 100 µM (inactive)
GI50 (T47D): > 100 µM (inactive)
GI50 (HL-60): > 100 µM (inactive)
GI50 (KM12): > 100 µM (inactive)
GI50 (SR): > 100 µM (inactive)
GI50 (A498): > 100 µM (inactive)
GI50 (MDA-N): > 100 µM (inactive)
GI50 (HT-29): > 100 µM (inactive)
GI50 (SK-MEL-5): > 100 µM (inactive)
GI50 (U-251): > 100 µM (inactive)
GI50 (OVCAR-5): > 100 µM (inactive)
GI50 (IGROV-1): > 100 µM (inactive)
GI50 (SF-295): > 100 µM (inactive)
GI50 (NCI/ADR-RES): > 100 µM (inactive)
GI50 (UO-31): > 100 µM (inactive)
GI50 (OVCAR-8): > 100 µM (inactive)
GI50 (HCT-116): > 100 µM (inactive)
GI50 (MDA-MB-435): > 100 µM (inactive)
GI50 (EKVX): > 100 µM (inactive)
GI50 (NCI-H460): > 100 µM (inactive)
GI50 (RPMI-8226): > 100 µM (inactive)
GI50 (CCRF-CEM): > 100 µM (inactive)
GI50 (Malme-3M): > 100 µM (inactive)
GI50 (SK-MEL-28): > 100 µM (inactive)
GI50 (UACC-257): > 100 µM (inactive)
GI50 (TK-10): > 100 µM (inactive)

Reference: ChEMBL document CHEMBL1201862, “PubChem BioAssay data set” (2004)
